Assay results: US12349708B2, “Use and methods of 1,3-propanediol to improve taste and/or off-taste qualities” (Primient Covation LLC, priority 2019, dated 2025)

Assays:
[1] = system: experienced and trained panelist; assay: Sensorial comparison of energy shot prototypes at various malic acid and sucralose levels with and without bioPDO (Example 5); type: in vivo, human; details: 0.2% bioPDO; sucralose and malic acid lowered by 32% and 47%
Experimental: (§1) • 1. Take 1st sip from a full 30 mL medicine cup, taste and swallow the 1st sample, wait 10 seconds, then take a 2nd sip and lock it into memory. Wait for 10 seconds. • 2. Proceed with 2nd sample. Taste 1st sip of the 2nd sample, wait for 10 seconds, and then use the 2nd sip to compare to the 2nd sip (or 3rd sip) of the 1st sample.
Each paired sample evaluation was repeated in triplicate with at least a 10-minute break and a carbon-treated water rinse.
The theory is to try to establish a reduced amount (concentration) of malic acid to match its sourness intensity of our energy shot prototype w/bioPDO to the control, energy shot prototype without bioPDO. Secondly, if this adjustment of lowering the malic acid concentration results in increasing sweetness, an additional step will be performed to reduce the amount of sucralose until both sourness and sweetness taste match that of the control w/o bioPDO. Below are the comparative sensorial evaluation results in Tables 33-36 including their specific sample formulations, observations, and results. Keywords of SUL, MA and CAF are sucralose, malic acid, and caffeine, respectively.

[2] = system: descriptive panel of 8 panelists; assay: Descriptive analysis of 5HE, BANG and energy shot prototype drinks with and without bioPDO (Example 6); type: in vivo, human; details: addition of bioPDO (0.1%)
Experimental: A formal sensory testing called descriptive analysis (DA) was performed by 8 trained panelists in triplicate (n=24) on energy shot prototype, BANG prototype samples, and 5HE SHOT prototype samples with & without bioPDO. All samples were served to panelists at ambient temperature 20±2° C.
A qualified descriptive panel of 8 panelists, experienced in the sensory analysis of a range of products, was used for this research.
The protocol for descriptive analysis was divided into two distinct phases. 1) During the panel orientation phase, panelists tasted the samples and formulated a lexicon of descriptive taste, mouthfeel, aftertaste and after feel attributes to describe them. A final list of 3 taste, 3 mouthfeel, 3 aftertaste and 1 after feel attributes were determined (Table 37). During the sample testing phase, which took place over 2 separate days, the products were evaluated in triplicate (total evaluations n=24). […]
Following consumption of the 1st sip, panelists assessed the attribute ‘initial harshness mouthfeel’. The remaining attributes (including ‘harshness mouthfeel’) were then measured by panelists on the 2nd sip. Aftertaste/feel attributes were measured 30 seconds after ingestion of the 2nd sip. […]
The sensory attributes of the products were scored on unstructured 10 cm line scales labeled at both ends with extremes of each descriptive term. […]

[3] = Comparison of energy shot prototypes with and without caffeine and bioPDO (Example 7); type: in vivo, human; details: samples without caffeine
Experimental: as §1, with “2nd sip of the” for “2nd sip (or 3rd sip) of the”, “1st sample. • 3. Rinse with DW and wait for approximately 15 seconds. Repeat step 2 for each if extra sampling needed, not to exceed four samples at a time.” for “1st sample.”
Each paired sample evaluation was repeated in duplicate with at least a 10-minute break and a carbon-treated water rinse.
The following samples were prepared for this study: • 1. Existing Sample #3A (Energy shot prototype) without bioPDO. • 2. Existing Sample #3B (Energy shot prototype) with bioPDO. • 3. New Sample #4A with similar levels of sucralose and malic acid as Sample #3A, BUT without bioPDO and caffeine as an experimental sample. • 4. New Sample #4B with similar levels of sucralose, malic acid and bioPDO as Sample #3B, BUT without caffeine as an experimental sample. Results
This study was designed so it would be possible to directly identify any other ‘off-taste’ attribute. […] Below are the comparative sensorial evaluation results in Table 42 including their specific sample formulations, observations and results. Keywords of SUL, MA and CAF are sucralose, malic acid and caffeine, respectively.

[4] = Taste of juices and yogurts with 1,3-propanediol; type: in vivo

OCCCO [PDO, 1,3-propanediol]
taste quality effect of 0.2% addition [1]: failed to further improve
overall taste quality of energy shots/drink [2]: significantly improves overall taste quality
modulation of sweet and sour intensities [3]: does not positively or negatively modulate the sweet and sour intensities
taste modulation ([4]; Greek yogurt, with vs without): less bitter and sweeter
taste modulation ([4]; Vanilla yogurt, with vs without): less bitter and somewhat sweeter
taste modulation ([4]; cranberry juice): reduced both the bitterness and the sweetness
taste modulation ([4]; grapefruit juice): decrease the bitterness and increase the sweetness
taste modulation ([4]; orange juice, with vs without): less bitter and somewhat sweeter
